From doi:10.1101/2025.07.06.663376v1, “Fubylation as a Druggable Ubiquitin-Like Conjugation System Controlling Hippo Pathway Activity” (biorxiv, 2025)

Experiments:
Type in all cases: binding
[1] = target: T1, FUBI (Homo sapiens, UniProt P62861); test: photo-crosslinking, rhodamine-azide click, in-gel fluorescence
T1 construct: gene FAU; mature FUBI (74 residues, ends VAGRMLGG) cut from the FAU precursor (FUBI-eS30 fusion); E. coli BL21; GST-FUBI (pGEX-6P-1) for photolabelling; untagged FUBI (6-HIS-SUMO removed by ULP1) for HDX-MS; printed peptides 32-42 EGIAPEDQVVL and 67-74 VAGRMLGG
From the text: photo-crosslinking, rhodamine-azide click, in-gel fluorescence on FUBI | recombinant preparations of FUBI, but not S30, were dose-dependently labeled by mCMN927

[2] = target: T2, FAU (Homo sapiens, UniProt P62861); test: as above
T2 construct: uncleaved FAU precursor (FUBI fused to ribosomal protein S30); GST-tagged (pGEX-6P-1), E. coli BL21, glutathione agarose

[3] = target: T1, FUBI; test: HDX-MS (also competition of probe labelling); details: untagged FUBI 5 µM, 600 µM compound, 20 mM Tris-HCl, 100 mM NaCl, pH 8.0, 25 °C; non-covalent; residues 32-42 and 67-74

## C#CCCC1(CCN(C)CC2CCN(c3nc(-c4ccncc4)nc4ccccc34)CC2)N=N1 [mCMN927, {2-[3-(but-3-yn-1-yl)diazirin-3-yl]ethyl}(methyl)({1-[2-(pyridin-4-yl)quinazolin-4-yl]piperidin-4-yl}methyl)amine]
[1]
  EC50: 3.5 µM
[2]
  EC50: 4.3 µM

## CN(C)CC1CCN(c2nc(-c3ccncc3)nc3ccccc23)CC1 [sCMF231]
[3]
  HDX-MS (also competition of probe labelling): sCMF231 treatment reduced deuterium exchange within two key regions
